pEC50: −log10 of the molar value.
target: T1, GFRα1-RET (Homo sapiens, UniProt P56159); test: Elk1 reporter-gene (luciferase) assay in cells expressing GFRα1-RET; type: cell-based; details: MG87 murine fibroblasts stably transfected with PathDetect Elk-1, GFRα1 and RET, 6 concentrations, agonist/activator activity
T1 construct: expressed in transfected cells; host or cells: MG87 murine fibroblasts, stably transfected
T1 sequence (P56159 25-429 limits assumed): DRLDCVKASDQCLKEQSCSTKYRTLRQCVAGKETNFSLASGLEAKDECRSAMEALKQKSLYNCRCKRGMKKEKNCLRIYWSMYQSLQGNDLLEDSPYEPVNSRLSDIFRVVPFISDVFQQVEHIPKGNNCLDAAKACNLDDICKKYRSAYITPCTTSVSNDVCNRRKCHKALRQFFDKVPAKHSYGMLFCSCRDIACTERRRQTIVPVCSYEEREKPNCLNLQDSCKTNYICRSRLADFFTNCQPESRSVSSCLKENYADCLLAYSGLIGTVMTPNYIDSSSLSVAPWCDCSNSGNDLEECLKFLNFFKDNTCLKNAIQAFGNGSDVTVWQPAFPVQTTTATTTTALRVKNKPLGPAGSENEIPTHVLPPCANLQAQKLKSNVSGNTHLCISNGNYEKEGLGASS
Protocol: For ECso determination, a dose-response test was performed using 6 concentrations of each tested compound. Dose-response curves were fitted using the sigmoidal dose-response (variable slope) analysis in GraphPad Prism program (Graph Pad Inc) and ECso of agonist/activator activity was calculated. Dose-response experiments were all performed in duplicate, two times independently.

Structure (SMILES)	pEC50
COc1ccc(S(=O)(=O)N2CCC(CCc3ccccc3)CC2)cc1N1[C@@H]2CC[C@H]1CN(C(=O)c1cc(F)c(F)cc1Cl)C2 [compound 050, (2-chloro-4,5-difluoro-phenyl)-[(1S,5R)-8-[2-methoxy-5-[[4-(2-phenylethyl)-1-piperidyl]sulfonyl]phenyl]-3,8-diazabicyclo[3.2.1]octan-3-yl]methanone]	> 6.00
COc1ccc(S(=O)(=O)N2CCN(c3ccccc3)CC2)cc1N1[C@@H]2CC[C@H]1CN(C(=O)c1cc(F)c(F)cc1Cl)C2 [compound 051]	> 6.00
COc1ccc(S(=O)(=O)N2CCC(=Cc3ccccc3)CC2)cc1N1[C@@H]2CC[C@H]1CN(C(=O)c1cc(F)c(F)cc1Cl)C2 [compound 053, [(1S,5R)-8-[5-[(4-benzylidene-1-piperidyl)sulfonyl]-2-methoxy-phenyl]-3,8-diazabicyclo[3.2.1]octan-3-yl]-(2-chloro-4,5-difluoro-phenyl)methanone]	> 6.00
COc1ccc(S(=O)(=O)N(C)C(C)(C)C)cc1N1[C@@H]2CC[C@H]1CN(C(=O)c1cc(F)c(F)cc1Cl)C2 [compound 054, N-tert-butyl-3-[(1S,5R)-3-(2-chloro-4,5-difluoro-benzoyl)-3,8-diazabicyclo[3.2.1]octan-8-yl]-4-methoxy-N-methyl-benzenesulfonamide]	5.00 to 6.00
O=C(c1ccc(F)cc1Cl)N1C[C@H]2CC[C@@H](C1)N2c1cc(S(=O)(=O)N2CCC(c3ccccc3)CC2)cc2c1OCC2 [compound 055, (2-chloro-4-fluoro-phenyl)-[(1S,5R)-8-[5-[(4-phenyl-1-piperidyl)sulfonyl]-2,3-dihydrobenzofuran-7-yl]-3,8-diazabicyclo[3.2.1]octan-3-yl]methanone]	> 6.00
O=C(c1ccc(F)cc1Cl)N1C[C@H]2CC[C@@H](C1)N2c1cc(S(=O)(=O)N2CCC(c3ccc(F)cc3)CC2)cc2c1OCC2 [compound 056, (2-chloro-4-fluoro-phenyl)-[(1S,5R)-8-[5-[[4-(4-fluorophenyl)-1-piperidyl]sulfonyl]-2,3-dihydrobenzofuran-7-yl]-3,8-diazabicyclo[3.2.1]octan-3-yl]methanone]	> 6.00
CC(C)(C)NS(=O)(=O)c1cc2c(c(N3[C@@H]4CC[C@H]3CN(C(=O)c3ccc(F)cc3Cl)C4)c1)OCC2 [compound 057, N-tert-butyl-7-[(1S,5R)-3-(2-chloro-4-fluoro-benzoyl)-3,8-diazabicyclo[3.2.1]octan-8-yl]-2,3-dihydrobenzofuran-5-sulfonamide]	> 6.00
CN(CC1CC1)S(=O)(=O)c1cc2c(c(N3[C@@H]4CC[C@H]3CN(C(=O)c3ccc(F)cc3Cl)C4)c1)OCC2 [compound 058, 7-[(1S,5R)-3-(2-chloro-4-fluoro-benzoyl)-3,8-diazabicyclo[3.2.1]octan-8-yl]-N-(cyclopropylmethyl)-N-methyl-2,3-dihydrobenzofuran-5-sulfonamide]	5.00 to 6.00
O=C(c1ccc(F)cc1Cl)N1C[C@H]2CC[C@@H](C1)N2c1cc(S(=O)(=O)N2CCN(CCc3ccc(F)cc3)CC2)cc2c1OCC2 [compound 059, (2-chloro-4-fluoro-phenyl)-[(1S,5R)-8-[5-[4-[2-(4-fluorophenyl)ethyl]piperazin-1-yl]sulfonyl-2,3-dihydrobenzofuran-7-yl]-3,8-diazabicyclo[3.2.1]octan-3-yl]methanone]	> 6.00
O=C(c1ccc(F)cc1Cl)N1C[C@H]2CC[C@@H](C1)N2c1cc(S(=O)(=O)N2CCN(CCc3ccc(Cl)cc3)CC2)cc2c1OCC2 [compound 060, (2-chloro-4-fluoro-phenyl)-[(1S,5R)-8-[5-[4-[2-(4-chlorophenyl)ethyl]piperazin-1-yl]sulfonyl-2,3-dihydrobenzofuran-7-yl]-3,8-diazabicyclo[3.2.1]octan-3-yl]methanone]	> 6.00
O=C(c1cc(F)c(F)cc1Cl)N1C[C@H]2CC[C@@H](C1)N2c1cc(S(=O)(=O)N2CCC(c3ccccc3)CC2)cc2c1OCC2 [compound 061, (2-chloro-4,5-difluoro-phenyl)-[(1S,5R)-8-[5-[(4-phenyl-1-piperidyl)sulfonyl]-2,3-dihydrobenzofuran-7-yl]-3,8-diazabicyclo[3.2.1]octan-3-yl]methanone]	> 6.00
O=C(c1ccc(F)cc1Cl)N1C[C@H]2CC[C@@H](C1)N2c1cc(S(=O)(=O)N2CCC(CCc3ccccc3)CC2)ccc1O [compound 062]	> 6.00
O=C(c1ccc(F)cc1Cl)N1C[C@H]2CC[C@@H](C1)N2c1cc(S(=O)(=O)N2CCC(c3ccccc3)CC2)ccc1O [compound 063, (2-chloro-4-fluoro-phenyl)-[(1S,5R)-8-[2-hydroxy-5-[(4-phenyl-1-piperidyl)sulfonyl]phenyl]-3,8-diazabicyclo[3.2.1]octan-3-yl]methanone]	> 6.00
O=C(c1ccc(F)cc1Cl)N1C[C@H]2CC[C@@H](C1)N2c1cc(S(=O)(=O)N2CCN(CCc3ccc(Cl)cc3)CC2)ccc1O [compound 064, (2-chloro-4-fluoro-phenyl)-[(1S,5R)-8-[5-[4-[2-(4-chlorophenyl)ethyl]piperazin-1-yl]sulfonyl-2-hydroxy-phenyl]-3,8-diazabicyclo[3.2.1]octan-3-yl]methanone]	> 6.00
O=C(c1ccc(F)cc1Cl)N1C[C@H]2CC[C@@H](C1)N2c1cc(S(=O)(=O)N2CCC(c3ccc(F)cc3)CC2)ccc1O [compound 065, (2-chloro-4-fluoro-phenyl)-[(1S,5R)-8-[5-[[4-(4-fluorophenyl)-1-piperidyl]sulfonyl]-2-hydroxy-phenyl]-3,8-diazabicyclo[3.2.1]octan-3-yl]methanone]	> 6.00
O=C(c1ccc(F)cc1Cl)N1C[C@H]2CC[C@@H](C1)N2c1cc(S(=O)(=O)N2CCC(c3ccccc3)CC2)ccc1Cl [compound 066, (2-chloro-4-fluoro-phenyl)-[(1S,5R)-8-[2-chloro-5-[(4-phenyl-1-piperidyl)sulfonyl]phenyl]-3,8-diazabicyclo[3.2.1]octan-3-yl]methanone]	> 6.00
Cc1ccc(S(=O)(=O)N2CCC(c3ccccc3)CC2)cc1N1[C@@H]2CC[C@H]1CN(C(=O)c1ccc(F)cc1Cl)C2 [compound 067, (2-chloro-4-fluoro-phenyl)-[(1S,5R)-8-[2-methyl-5-[(4-phenyl-1-piperidyl)sulfonyl]phenyl]-3,8-diazabicyclo[3.2.1]octan-3-yl]methanone]	> 6.00
CCCN(C)S(=O)(=O)c1ccc(C)c(N2[C@@H]3CC[C@H]2CN(C(=O)c2ccc(F)cc2Cl)C3)c1 [compound 068, 3-[(1S,5R)-3-(2-chloro-4-fluoro-benzoyl)-3,8-diazabicyclo[3.2.1]octan-8-yl]-N,4-dimethyl-N-propyl-benzenesulfonamide]	> 6.00
COC(=O)c1ccc(S(=O)(=O)N2CCC(c3ccccc3)CC2)cc1N1[C@@H]2CC[C@H]1CN(C(=O)c1ccc(F)cc1Cl)C2 [compound 069, methyl 2-[(1S,5R)-3-(2-chloro-4-fluoro-benzoyl)-3,8-diazabicyclo[3.2.1]octan-8-yl]-4-[(4-phenyl-1-piperidyl)sulfonyl]benzoate]	> 6.00
O=C(c1ccc(F)cc1Cl)N1C[C@H]2CC[C@@H](C1)N2c1cc(S(=O)(=O)N2CCC(c3ccccc3)CC2)ccc1CO [compound 070, (2-chloro-4-fluoro-phenyl)-[(1S,5R)-8-[2-(hydroxymethyl)-5-[(4-phenyl-1-piperidyl)sulfonyl]phenyl]-3,8-diazabicyclo[3.2.1]octan-3-yl]methanone]	> 6.00
O=C(O)c1ccc(S(=O)(=O)N2CCC(c3ccccc3)CC2)cc1N1[C@@H]2CC[C@H]1CN(C(=O)c1ccc(F)cc1Cl)C2 [compound 071, 2-[(1S,5R)-3-(2-chloro-4-fluoro-benzoyl)-3,8-diazabicyclo[3.2.1]octan-8-yl]-4-[(4-phenyl-1-piperidyl)sulfonyl]benzoic acid]	> 6.00
CC(C)(O)c1ccc(S(=O)(=O)N2CCC(c3ccccc3)CC2)cc1N1[C@@H]2CC[C@H]1CN(C(=O)c1ccc(F)cc1Cl)C2 [compound 072, (2-chloro-4-fluoro-phenyl)-[(1S,5R)-8-[2-(1-hydroxy-1-methyl-ethyl)-5-[(4-phenyl-1-piperidyl)sulfonyl]phenyl]-3,8-diazabicyclo[3.2.1]octan-3-yl]methanone]	5.00 to 6.00
CN(C)Cc1ccc(S(=O)(=O)N2CCC(c3ccccc3)CC2)cc1N1[C@@H]2CC[C@H]1CN(C(=O)c1ccc(F)cc1Cl)C2 [compound 073, (2-chloro-4-fluoro-phenyl)-[(1S,5R)-8-[2-[(dimethylamino)methyl]-5-[(4-phenyl-1-piperidyl)sulfonyl]phenyl]-3,8-diazabicyclo[3.2.1]octan-3-yl]methanone]	5.00 to 6.00
Cc1c(Cl)cc(S(=O)(=O)NC(C)(C)C)cc1N1[C@@H]2CC[C@H]1CN(C(=O)c1ccc(F)cc1Cl)C2 [compound 074, N-tert-butyl-3-chloro-5-[(1S,5R)-3-(2-chloro-4-fluoro-benzoyl)-3,8-diazabicyclo[3.2.1]octan-8-yl]-4-methyl-benzenesulfonamide]	> 6.00
CC(C)(C)NS(=O)(=O)c1cc(Cl)c(Cl)c(N2[C@@H]3CC[C@H]2CN(C(=O)c2ccc(F)cc2Cl)C3)c1 [compound 075, N-tert-butyl-3,4-dichloro-5-[(1S,5R)-3-(2-chloro-4-fluoro-benzoyl)-3,8-diazabicyclo[3.2.1]octan-8-yl]benzenesulfonamide]	> 6.00
O=C(c1ccc(F)cc1Cl)N1C[C@H]2CC[C@@H](C1)N2c1cc(S(=O)(=O)N2CCC(c3ccccc3)CC2)ccc1OCCO [compound 076]	> 6.00
